Data: patent publication US20220202792A1, “METHODS AND COMPOSITIONS FOR TREATING CHRONIC INFLAMMATORY INJURY, METAPLASIA, DYSPLASIA AND CANCERS OF EPITHELIAL TISSUES” (University of Houston System, priority 2019, published 2022)

What was measured:
[1] = system: Barrett's stem cells (BE stem cells, Krt7+); assay: High throughput chemical screening and dose response on GFP-labeled stem cells; assay type: cell-based, human
[2] = system: esophageal squamous stem cells (ESO stem cells, Krt5+); assay: as above; assay type: cell-based, human; details: in the presence of 1 μM Ponatinib
[3] = system: Barrett's stem cells and Esophageal stem cells; assay: Co-culture of Barrett's stem cell lines and Esophageal stem cells; assay type: cell-based, human; details: in the presence of Ponatinib
[4] = system: Barrett's stem cells (GFP) and esophageal squamous stem cells (RFP); assay: 3D air-liquid interface (ALI) co-culture of Barrett's and esophageal stem cells; assay type: cell-based, human; details: in the presence of Ponatinib
Protocol: A 3D culture model was generated to mimic Barrett's Esophagus in vitro. The esophageal squamous stem cells and Barrett's stem cells were co-cultured in the transwell insert. Following the creation of air-liquid interface, it was observed that the BE islands located among well-differentiated squamous epithelium that well recapitulated the histology of human BE in the patient. Given the similarity of this artificial model and human pathology, the hits were tested in this system to further validate them. […] The esophageal squamous stem cells were labeled with red fluorescent protein (RFP) while Barrett's stem cells were labeled with green fluorescent protein (GFP). Without the treatment, it was observed that a mixture of GFP and RFP labeled cells in culture.

[5] = system: Barrett's stem cells and esophageal squamous stem cells xenograft; assay: Mouse xenograft of co-injected esophageal squamous and GFP labeled Barrett's stem cells; assay type: in vivo, mice
Description: The effect of these chemicals on BE in a xenograft model was further examined. The esophageal squamous stem cells and GFP labeled Barrett's stem cells were mixed and co-injected into the immunodeficient mice. […] Two weeks following the treatment, the xenografts were collected and examined through histology analysis and clonogenic analysis.

[6] = system: Barrett's, dysplasia or EAC stem cells; assay: Co-culture of esophageal stem cells with Barrett's, dysplasia or EAC stem cells; assay type: cell-based, human; details: together with 1 μM Ponatinib
Protocol: FIG. 6. Patient-matched BE, dysplasia and cancer stem cells (Krt7+, Green) were mixed with Krt5+ (red) ESO cells and co-cultured for five days and then treated with seven selected drugs together with 1 μM Ponatinib.
BE has been known to be the precursor of the dysplastic and cancerous lesions of EAC. […] Moreover, PCA analysis of Barrett's stem cells derived from 12 patients together with dysplasia, cancer and Esophageal squamous stem cells confirmed that the stem cells of dysplasia and cancer shared very similar gene expression with Barrett's stem cells (FIGS. 4A & B). […] The effects of the eight drug hits in combination with Ponatinib were tested in the cell culture of co-seeding esophageal stem cells and Barrett's, dysplasia or EAC stem cells. […] Given these three entities always co-exist in patients with EAC, our strategies of eradicating all of them could help to eliminate the chance of recurrence of EAC patients drastically.

[7] = system: BE, dysplasia and cancer stem cells; assay: 3D (ALI) culture of patient-matched BE, dysplasia and cancer stem cells; assay type: cell-based, human; details: combined with Ponatinib
Description: FIG. 5B. Left, Scanned images of top view of BE, dysplasia and cancer stem cells (green) generated ALI structures in the presence of absence of drug combinations.

[8] = system: dysplasia and cancer stem cells; assay: Mice xenografted with dysplasia and cancer stem cells; assay type: in vivo; details: with Ponatinib
Description: FIG. 5C. Schematic of in vivo validation of drug combinations in mice xenografted with dysplasia and cancer stem cells. Following the treatment, the xenografts were processed for histological analysis or clonogenic assays to detect the existence of stem cells.

JMJD2A (KDM4A) = target: T1, JMJD2A (KDM4A) (Homo sapiens, UniProt O75164); details: demethylase activity in vitro; cited from earlier work
T1 sequence (O75164 1-1064): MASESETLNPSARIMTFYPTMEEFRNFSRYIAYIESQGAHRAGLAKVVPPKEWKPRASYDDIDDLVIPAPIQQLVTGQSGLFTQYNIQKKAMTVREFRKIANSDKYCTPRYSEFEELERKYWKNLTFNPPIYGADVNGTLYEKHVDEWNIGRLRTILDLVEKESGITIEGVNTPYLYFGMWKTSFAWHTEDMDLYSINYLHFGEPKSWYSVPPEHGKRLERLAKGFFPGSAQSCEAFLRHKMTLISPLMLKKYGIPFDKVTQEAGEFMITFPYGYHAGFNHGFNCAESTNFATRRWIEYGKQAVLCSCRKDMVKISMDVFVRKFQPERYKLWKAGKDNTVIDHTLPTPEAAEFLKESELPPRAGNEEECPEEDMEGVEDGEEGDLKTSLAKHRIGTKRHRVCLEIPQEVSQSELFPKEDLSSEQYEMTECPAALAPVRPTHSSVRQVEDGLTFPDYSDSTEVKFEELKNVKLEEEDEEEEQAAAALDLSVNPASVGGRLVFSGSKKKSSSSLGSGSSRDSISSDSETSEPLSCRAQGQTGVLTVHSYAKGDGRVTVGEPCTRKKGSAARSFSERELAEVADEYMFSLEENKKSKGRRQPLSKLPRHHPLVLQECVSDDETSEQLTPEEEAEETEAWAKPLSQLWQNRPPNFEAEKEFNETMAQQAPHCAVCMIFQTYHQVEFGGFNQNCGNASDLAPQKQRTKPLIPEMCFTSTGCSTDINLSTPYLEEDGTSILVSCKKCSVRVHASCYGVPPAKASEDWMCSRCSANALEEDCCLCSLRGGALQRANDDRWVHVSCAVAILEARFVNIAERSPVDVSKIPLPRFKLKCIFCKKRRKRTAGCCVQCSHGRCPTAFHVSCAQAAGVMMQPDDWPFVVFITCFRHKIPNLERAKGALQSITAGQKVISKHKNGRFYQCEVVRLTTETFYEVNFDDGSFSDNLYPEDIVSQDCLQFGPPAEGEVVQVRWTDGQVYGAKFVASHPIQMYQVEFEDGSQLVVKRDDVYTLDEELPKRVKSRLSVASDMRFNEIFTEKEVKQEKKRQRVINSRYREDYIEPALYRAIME

[9] = system: aggressive breast cancer model; details: in vivo; cited from earlier work

Question: Which results are given for `Clc1ccc(N/N=C(\c2ccccc2)c2ccccn2)nc1` [JIB04]?
Answer: differential of dose-response curves, BE stem cells versus normal esophageal stem cells ([1]; in the background of a fixed concentration of Ponatinib): ~1,000 fold; lethality towards Barrett's stem cells ([1]; screened in the background of 1 μM Ponatinib): displayed the lethality; effect on Esophageal stem cells [2]: without affecting; effect on Esophageal squamous stem cells in co-culture [3]: promoting; lethality to Barrett's stem cells in co-culture ([3]; nine Barrett's stem cell lines): uniform lethality to all Barrett's stem cells; cross sections of the ALI structures [4]: intact esophageal squamous epithelium without any existence of Barrett's epithelium; GFP labeled Barrett's stem cells in 3D ALI co-culture ([4]; eight Barrett's stem cell lines): disappearance; BE stem cells in treated structures (histological analysis) ([5]; NSG mice, with Ponatinib): not detected; Krt5+ ESO structures in treated samples ([5]; NSG mice, with Ponatinib): visibly more robust; clonogenic Barrett's stem cells from xenografts ([5]; combination with Ponatinib, clonogenic analysis): lack of clonogenic Barrett's stem cells; Barrett's structures in xenografts (histology) ([5]; combination with Ponatinib, intraperitoneally, two weeks following the treatment): total loss; growth of BE, dysplasia and cancer stem cells in co-culture with ESO cells [6]: most effective; eradication of BE, dysplasia and cancer stem cells in 3D (ALI) culture [7]: eradicate; Dysplastic structures (Krt7+/Ki67+) in xenografts [8]: diminished; eradication of precancerous, dysplastic and cancerous stem cells in mouse xenograft models [8]: eradicate; stem cells cloned from treated dysplastic structures (rhodamine staining) [8]: not cloned; IC50 (JMJD2A (KDM4A)): ~440 nM; tumor burden and survival of mice [9]: reduces tumor burden and prolongs survival
